Values quoted from earlier work, collected in the PKSmart pharmacokinetics tables (Seal et al. 2025).
*1 amine or outer side, *2 acyl side, *3 side chain or, on linkers, in order; H or OH if unused. Where a SMILES comes first, the peptide text is derived from it. Bridges are numbered along the chain shown (N, C = ends). [ ]: non-standard residue; d: D form. ξ: configuration not given here. ξPro(4R-OH) = O=C(O)C1C[C@@H](O)CN1; ξ2Thi = NC(Cc1cccs1)C(=O)O; ξR = N=C(N)NCCCC(N)C(=O)O; Iva = CC[C@](C)(N)C(=O)O; ξF = NC(Cc1ccccc1)C(=O)O; X3 = O=C(CCC[*:2])[*:1]; ξN = NC(=O)CC(N)C(=O)O; ξC = NC(CS)C(=O)O

Assay: Lombardo, Berellini, Obach 2018, Drug Metab Dispos 46:1466, doi 10.1124/dmd.118.082966
Settings: human; for MRT / Vd / clearance / half-life: in vivo, iv; for fraction unbound: plasma

SMILES	MRT [h]	Vd [L/kg]	clearance [mL/min/kg]	half-life [h]	fraction unbound
CSCCNc1nc(SCCC(F)(F)F)nc2c1ncn2[C@@H]1O[C@H](CO[P@](=O)(O)O[P@](=O)(O)C(Cl)(Cl)P(=O)(O)O)[C@@H](O)[C@H]1O	0.07	0.035	9.06	0.14	0.02
CCCc1nn(C)c2c(=O)[nH]c(-c3cc(S(=O)(=O)N4CCN(C)CC4)ccc3OCC)nc12	2.5	1.36	–	2.2	–
CON=C(C(=O)NC1C(=O)N2C(C(=O)[O-])=C(C[n+]3ccc(-c4cnco4)cc3)CS[C@H]12)c1csc(N)n1 (stereo partly drawn)	2.64	0.22	1.76	1.78	–
CC(C)(C)S(=O)(=O)CC(Cc1ccccc1)C(=O)NC(Cc1c[nH]cn1)C(=O)N[C@@H](CC1CCCCC1)[C@@H](O)C(O)C1CC1 (stereo partly drawn)	1.1	0.77	11.6	5.2	0.0558
O=C1CN=C(c2ccccc2Cl)c2cc(Cl)ccc2N1	220	2.2	0.17	200	0.051
Nc1ccn([C@@H]2CO[C@H](CO)S2)c(=O)n1	3.6	0.84	3.9	8.92	–
NC[C@H]1O[C@H](O[C@H]2[C@H](O[C@@H]3O[C@H](CO)[C@@H](O)[C@H]3O)[C@@H](O)[C@H](N)C[C@@H]2N)[C@H](N)[C@@H](O)[C@@H]1O	2.8	0.25	1.5	2.5	–
CCOC(=O)C1=C(C)NC(C)=C(C(=O)OC)C1c1cccc([N+](=O)[O-])c1 (stereo not drawn)	4.1	6.1	25	8.2	0.02
CC(O)C(CO)NC(=O)C1CSSCC(NC(=O)C(N)Cc2ccccc2)C(=O)NC(Cc2ccccc2)C(=O)NC(Cc2c[nH]c3ccccc23)C(=O)NC(CCCCN)C(=O)NC(C(C)O)C(=O)N1 (stereo not drawn)	1.3	0.19	2.38	1.7	0.35
NC(=O)C1CC[C@@H]2CN1C(=O)N2OS(=O)(=O)O (stereo partly drawn)	1.4	0.24	2.76	1.7	0.93
CCC1=C[C@@H]2CN(CCc3c([nH]c4ccccc34)[C@@](C(=O)OC)(c3cc4c(cc3OC)N(C)[C@H]3[C@@](O)(C(=O)OC)[C@H](OC(C)=O)[C@]5(CC)C=CCN6CC[C@]43[C@@H]65)C2)C1	17	12	12	18	–
CC1CNc2c(cccc2S(=O)(=O)NC(CCCNC(=N)N)C(=O)N2CC[C@@H](C)CC2C(=O)O)C1 (stereo partly drawn)	0.57	0.17	5	0.4	0.46
CC[C@]1(C)NC(=O)C(Cc2cccs2)NC(=O)C(Cc2ccccc2)NC(=O)CCCSCC(C(=O)N2C[C@H](O)CC2C(=O)NC(CCCNC(=N)N)C(=O)NCC(N)=O)NC(=O)C(CC(N)=O)NC1=O (stereo partly drawn) ([ξF][ξ2Thi][Iva][ξN][ξC][ξPro(4R-OH)][ξR]G-NH2; linker N-5 via X3)	5.63	0.31	0.87	4.28	–
CCN(CC)CC(=O)Nc1c(C)cccc1C	1.9	–	–	–	–
CC(Oc1ccccc1)C(=O)NC1C(=O)N2C(C(=O)O)C(C)(C)S[C@H]12 (stereo partly drawn)	1.2	0.3	4.2	0.91	0.25
OCCN1C[C@H](O)[C@@H](O)[C@H](O)[C@H]1CO	2.7	0.28	1.7	2.3	–
CCC(=O)C1(c2cccc(O)c2)CCN(C)CC1	0.87	0.48	9.2	2.3	–
Cc1cc(F)ccc1[C@H]1CNCCN1C(=O)N(C)[C@H](C)c1cc(C(F)(F)F)cc(C(F)(F)F)c1	12.8	3.8	5.09	10	–
CCN(CC)CCN(Cc1ccc(-c2ccc(C(F)(F)F)cc2)cc1)C(=O)Cn1c(SCc2ccc(F)cc2)nc(=O)c2c1CCC2	48.1	11.9	4.11	40.9	–
CC[C@H]1C2C[C@H]3[C@@H]4N(C)c5ccccc5C45C[C@@H](C2[C@H]5O)N3[C@@H]1O (stereo partly drawn)	6.8	4	9.8	7.3	0.24
O=C(NCCNCC(O)COc1ccc(O)cc1)N1CCOCC1 (stereo not drawn)	3.6	0.64	3	7.7	–
O=C(O)CCCCON=C(c1cccnc1)c1cccc(C(F)(F)F)c1	6.8	0.43	1.05	7.54	0.033
Cc1ccc(O)c([C@H](CCN(C(C)C)C(C)C)c2ccccc2)c1	3	1.5	8.4	2.4	–

SMILES	MRT [h]	Vd [L/kg]	clearance [mL/min/kg]	half-life [h]	fraction unbound
Cc1cc(Nc2cc(N3CCN(C)CC3)nc(Sc3ccc(NC(=O)C4CC4)cc3)n2)n[nH]1	4.5	5.1	18.4	8.4	–
Clc1ccc(COC(Cn2ccnc2)c2ccc(Cl)cc2Cl)c(Cl)c1 (stereo not drawn)	12.6	7.14	9.48	19.8	0.08
NCC(=O)CCC(=O)O	1.06	0.12	1.88	0.83	0.88
CC(C)(C(=O)O)c1ccc(C(=O)CCCN2CCC(OC(c3ccccc3)c3ccccc3)CC2)cc1	16.7	0.41	0.4	9.8	0.05
Cc1c(F)c(N2CCN[C@H](C)C2)cc2c1c(=O)c(C(=O)O)cn2C1CC1	–	–	5.9	9.2	0.82
CCc1c2c(nc3ccc(OC(=O)CCC(=O)Oc4c(C)c(C)c5c(c4C)CC[C@@](C)(CCC[C@H](C)CCC[C@H](C)CCCC(C)C)O5)cc13)-c1cc3c(c(=O)n1C2)COC(=O)[C@]3(O)CC	3.34	0.15	0.81	3.77	–
CCCCNc1cc(C(=O)O)cc(S(N)(=O)=O)c1Oc1ccccc1	1.1	0.16	2.5	1.2	–
CN(CCCCCCN(C)C(=O)Oc1ccc[n+](C)c1)C(=O)Oc1ccc[n+](C)c1	82.4	1	0.2	59.8	–
O=C(Cn1cnnn1)NC1C(=O)N2C(C(=O)O)=C(CSc3nncs3)CS[C@H]12 (stereo partly drawn)	–	–	5.37	0.64	–
N=C(N)NC(CS)C(=O)O (stereo not drawn)	1.39	0.25	2.88	1.34	–
O=C(O)C[C@H](O)C[C@H](O)/C=C/c1c(C2CC2)nc2ccccc2c1-c1ccc(F)cc1	2.7	0.9	5.85	4.6	0.005
NCCNc1ccc(NCCN)c2c1C(=O)c1ccncc1C2=O	8.9	10.1	17.7	13.4	–
Cc1cccc(N2CC(CO)OC2=O)c1 (stereo not drawn)	2.3	1.5	11	1.6	0.49
NCCCCC(NC(=O)C(Cc1cc(Br)c(O)c(Br)c1)NC(=O)N1CCC(N2Cc3ccccc3NC2=O)CC1)C(=O)N1CCN(c2ccncc2)CC1 (stereo not drawn)	1.9	0.31	2.6	2.5	–
CN(C)CCCN1c2ccccc2CCc2cc(O)ccc21	12	6.6	9.2	10	0.36
CCN(CC)C(=O)[C@]1(c2ccccc2)C[C@@H]1CN	8.17	4.51	8.17	6.48	–
CC[C@@]1(O)C[C@H](O[C@@H]2C[C@H](N3CCOCC3)[C@H](O)[C@H](C)O2)c2c(O)c3c(c(O)c2[C@H]1O)C(=O)c1cccc(O)c1C3=O	8	20.9	42.8	10.7	0.09
O=C(O)C1=C(C[n+]2ccc(CCS(=O)(=O)[O-])cc2)CSC2C(NC(=O)C(NC(=O)c3[nH]cnc3C(=O)O)c3ccccc3)C(=O)N12 (stereo not drawn)	2.1	0.21	1.7	1.8	–
CCC1C(=O)N(C)c2cnc(Nc3ccc(C(=O)N[C@H]4CC[C@H](N5CCN(CC6CC6)CC5)CC4)cc3OC)nc2N1C(C)C (stereo partly drawn)	116	80.5	11.6	113	–
CC(=O)OC1=C2C(C)[C@@H](OC(=O)C(O)C(CC(C)C)NC(=O)OC(C)(C)C)[C@@H]3OC(=O)O[C@]3([C@@H](OC(=O)c3ccccc3)[C@@H]3[C@]4(OC(C)=O)CO[C@@H]4C[C@H](O)[C@@]3(C)C1=O)C2(C)C (stereo partly drawn)	28.4	13.8	8.12	30.1	–
CC(C)[N+]1(C)[C@@H]2CC[C@H]1CC(OC(=O)C(CO)c1ccccc1)C2 (stereo partly drawn)	2.7	–	–	–	–
CSCC(NC(=O)COc1cccc2cnccc12)C(=O)NC(Cc1ccccc1)C(O)C(=O)N1CSCC1C(=O)NC(C)(C)C (stereo not drawn)	0.17	0.11	10.5	0.44	–
CCOc1cc(CC(=O)N[C@@H](CC(C)C)c2ccccc2N2CCCCC2)ccc1C(=O)O	1.88	0.315	4.92	1.69	–

SMILES	MRT [h]	Vd [L/kg]	clearance [mL/min/kg]	half-life [h]	fraction unbound
CCn1cc(C(=O)O)c(=O)c2cc(F)c(N3CCN[C@@H](C)C3)c(F)c21	7.89	2.04	3.98	8.1	–
O=C(O[C@H]1C[C@H]2CC3C[C@@H](C1)N2CC3=O)c1c[nH]c2ccccc12	0.19	2	–	0.13	0.49
N=C(N)NC(=O)c1cnn(-c2cccc3ncccc23)c1C1CC1	1.3	1.7	–	2	–
Cc1cc2c(OCC(O)CNC(C)C)cccc2[nH]1 (stereo not drawn)	6.21	2.17	5.83	4.61	0.51
Cn1c(=O)c2nc[nH]c2n(C)c1=O	–	–	–	7.2	–
C[C@]12CC=C3C4=C(CCC3[C@@H]1CC[C@@]2(O)CC#N)CC(=O)CC4 (stereo partly drawn)	8.52	0.6	1.29	11	0.1
CCC/N=C1\S/C(=C\c2ccc(OC[C@H](O)CO)c(Cl)c2)C(=O)N1c1ccccc1C	42.6	2.28	0.9	32.9	–
CCCc1cc(=O)[nH]c(=S)[nH]1	1.8	0.34	3.1	1.3	0.18
CCCCCN(C)CCC(O)(P(=O)(O)O)P(=O)(O)O	5.1	0.55	1.8	14	0.15
COc1cccc2c1C(=O)c1c(O)c3c(c(O)c1C2=O)C[C@@](O)(C(C)=O)C[C@@H]3O[C@H]1C[C@H](N)[C@H](O)[C@H](C)O1	11.2	32	47.6	14.2	0.06
CC1=C(C(=O)O)N2C(=O)C(NC(=O)C(N)c3ccc(O)cc3)[C@H]2SC1 (stereo partly drawn)	1.5	0.23	2.5	1.1	–
COc1c2occc2cc2ccc(=O)oc12	0.88	0.61	–	–	0.09
CC(N)CCCC(C)(C)O (stereo not drawn)	3.24	2.14	10.7	2.5	–
C#C[C@]1(O)CC[C@H]2[C@@H]3CCC4=Cc5oncc5C[C@]4(C)[C@H]3CC[C@@]21C	5.49	5.18	15.7	2.31	–
CN[C@@H]1[C@@H](O)[C@@H](O[C@@H]2[C@@H](O)[C@H](O[C@H]3O[C@H]([C@@H](C)N)CC[C@H]3N)[C@@H](N)C[C@H]2N)OC[C@]1(C)O	–	–	–	–	1
CN[C@@H]1CCc2[nH]c3ccc(C(N)=O)cc3c2C1	22	3.6	2.5	24	–
CCCNC(C)C(=O)Nc1ccccc1C (stereo not drawn)	2.2	3.7	29	1.8	0.72
COc1cc(OC)c(C(=O)CCCN2CCCC2)c(OC)c1	3.9	1.3	5.6	3.3	–
COC(=O)c1ccc2c(C(=Nc3ccc(N(C)C(=O)CN4CCN(C)CC4)cc3)c3ccccc3)c(O)[nH]c2c1	12.6	15	19.9	9.5	0.02
COc1ccc2cc1Oc1ccc(cc1)C[C@H]1c3cc(c(OC)cc3CCN1C)Oc1c(OC)c(OC)c(Br)c3c1[C@H](C2)N(C)CC3	88.2	51	9.6	59.4	0.22
CC[C@@H](C)N(C)C(=O)c1cc2ccccc2c(-c2ccccc2Cl)n1	5.4	1.7	5.9	3.7	–
COc1cccc2c1[C@H](CO)N1[C@H](C#N)[C@@H]3CC(C(=O)O)[C@H]([C@@H]1C2)N3C (stereo partly drawn)	1.23	0.23	3.06	1.52	–
COCCn1c2c([n+](Cc3cnccn3)c1C)C(=O)c1ccccc1C2=O	34.5	23.7	11.3	24.8	–
